Measurements as given in patent US7601850B2, “Phenyl-thiophene type vitamin D receptor modulators” (Eli Lilly and Company, priority 2002, dated 2009).
Where two headings read alike, the source gives them in different places.

Tested on: rat osteocalcin promoter
Assay: OCN (osteocalcin) promoter assay in RG-15 (ROS 17/2.8) cells
Type: cell-based
Protocol: 4. The OCN Promoter test is described in the “Assay” section of the Description, infra.
3. The OCN (Osteocalcin) Promoter Assay
The OCN Promoter Assay is an indicator and marker for osteoporosis. Desired assay results are EC50 less than or equal to 325 nM. Preferred assay results are less than 50 nM.
(3) Materials and Method for The OCN Promoter Assay:
The activation of osteocalcin by VDR ligands was evaluated in a rat osteoblast-like cell line RG-15 (ROS 17/2.8) stably expressing rat osteocalcin promoter fused with luciferase reporter gene. The stable cell lines were established as reported before (Activation of Osteocalcin Transcription involves interaction of protein kinase A- and Protein kinase C-dependent pathways. Boguslawski, G., Hale, L. V., Yu, X.-P., Miles, R. R., Onyia, J. E., Santerre R. F., Chandrasekhar, S. J Biol. Chem. 275, 999-1006, 2000). Confluent RG-15 cells maintained in DMEM/F-12 medium (3:1) containing 5% FBS, 300 µg/ml G418 and at 37° C. under 5% CO2/95% air atmosphere were trypsinized (0.25% trypsin) and plated into white opaque 96-well cell culture plates (25000 cells/well). After 24 hr, cells (in DMEM/F-12 medium+2% FBS) were treated with various concentrations of compounds, dissolved in DMSO. The final DMSO concentration remained at 0.01% (v/v). After 48 hr treatment, the medium was removed, cells were lysed with 50 µl of lysis buffer (From Luciferase reporter assay system, Roche Diagnostics, Indianapolis, Ind.) and assayed for luciferase activity using the Luciferase Reporter Gene Assay kit from Boehringer Mannheim as per manufacturer's specifications.

Compound	EC50 (Rattus norvegicus)	EC50
CCC(CC)(c1ccc(C(=O)NCC(=O)OC)c(C)c1)c1cc(C)c(CCC(O)C(C)(C)C)s1 (single isomer, unassigned) [Ex. 25A]	9.9 nM	
CCC(CC)(c1ccc(C(=O)NCC(=O)O)c(C)c1)c1cc(C)c(CCC(O)C(C)(C)C)s1 (single isomer, unassigned) [Ex. 27]	49.1 nM	
CCOC(=O)CCc1ccc(C(CC)(CC)c2cc(C)c(CCC(O)C(C)(C)C)s2)cc1C (single isomer, unassigned) [Ex. 28]	0.76 nM	
CCC(CC)(c1ccc(CCC(=O)O)c(C)c1)c1cc(C)c(CCC(O)C(C)(C)C)s1 (single isomer, unassigned) [Ex. 30A]	11.2 nM	
CCC(CC)(c1ccc(OCC(O)C(C)(C)C)c(C)c1)c1cc(C)c(C(=O)Nc2nnn[nH]2)s1 (single isomer, unassigned) [Ex. 37, 3′-[4-(2-hydroxy-3,3-dimethylbutoxy)-3-methylphenyl]-3′-[5-(tetrazol-5-yl-aminocarbonyl)-4-methylthiophen-2-yl]pentane]		240 nM
CCC(CC)(c1ccc(OCC(O)C(C)(C)C)c(C)c1)c1cc(C)c(C(=O)NCCS(C)(=O)=O)s1 (single isomer, unassigned) [Ex. 40, 5-[1-ethyl-1-[4-(2-hydroxy-3,3-dimethyl-butoxy)-3-methylphenyl]propyl]-3-methylthiophene-2-carboxylic acid (2-methylsulfonyl-ethyl) amide]		613 nM
CCC(CC)(c1ccc(OCC(O)C(C)(C)C)c(C)c1)c1cc(C)c(C(=O)N[C@@H](C)C(=O)OC)s1 (single isomer, unassigned) [Ex. 54, L-2-[(5-{1-Ethyl-1-[4-(2-hydroxy-3,3-dimethyl-butoxy)-3-methyl-phenyl]-propyl}-3-methyl-thiophene-2-carbonyl)amino]propionic acid methyl ester]		27.5 nM
CCC(CC)(c1ccc(OCC(O)C(C)(C)C)c(C)c1)c1cc(C)c(C(=O)N[C@H](C)C(=O)OC)s1 (single isomer, unassigned) [Ex. 56, D-2-[(5-{1-Ethyl-1-[4-(2-hydroxy-3,3-dimethyl-butoxy)-3-methyl-phenyl]-propyl}-3-methyl-thiophene-2-carbonyl)-amino]-propionic acid methyl ester]		164 nM
CCC(CC)(c1ccc(OCC(O)C(C)(C)C)c(C)c1)c1cc(C)c(C(=O)N[C@@H](CC(=O)OC)C(=O)OC)s1 (single isomer, unassigned) [Ex. 58, L-2-[(5-{1-ethyl-1-[4-(2-hydroxy-3,3-dimethyl-butoxy)-3-methyl-phenyl]-propyl}-3-methyl-thiophene-2-carbonyl)-amino]-succinic acid dimethyl ester]	277 nM	
CCC(CC)(c1ccc(OCC(O)C(C)(C)C)c(C)c1)c1cc(C)c(C(=O)N[C@@H](C)C(=O)OC)s1 (single isomer, unassigned) [Ex. 64, L-2-[(5-{1-Ethyl-1-[4-(2-hydroxy-3,3-dimethyl-butoxy)-3-methyl-phenyl]-propyl}-3-methyl-thiophene-2-carbonyl)-amino]-propionic acid methyl ester]		4.1 nM
CCC(CC)(c1ccc(OCC(O)C(C)(C)C)c(C)c1)c1cc(C)c(C(=O)NC(C)(C)C(=O)OC)s1 (single isomer, unassigned) [Ex. 70, 2-[(5-{1-Ethyl-1-[4-(2-hydroxy-3,3-dimethyl-butoxy)-3-methyl-phenyl]-propyl}-3-methyl-thiophene-2-carbonyl)-amino]-2-methyl-propionic acid methyl ester]		25.8 nM
CCC(CC)(c1ccc(OCC(O)C(C)(C)C)c(C)c1)c1cc(C)c(C(=O)N2CCC[C@H]2C(=O)OC)s1 (single isomer, unassigned) [Ex. 72, L-1-(5-{1-Ethyl-1-[4-(2-hydroxy-3,3-dimethyl-butoxy)-3-methyl-phenyl]-propyl}-3-methyl-thiophene-2-carbonyl)pyrrolidine-2-carboxylic acid methyl ester]		219 nM
CCC(CC)(c1ccc(OCC(O)C(C)(C)C)c(C)c1)c1cc(C)c(C(=O)N2CCC[C@H]2C(=O)O)s1 (single isomer, unassigned) [Ex. 73, L-1-(5-{1-Ethyl-1-[4-(2-hydroxy-3,3-dimethyl-butoxy)-3-methyl-phenyl]-propyl}-3-methyl-thiophene-2-carbonyl)pyrrolidine-2-carboxylic acid]	266 nM	
CCC(CC)(c1ccc(OCC(O)C(C)(C)C)c(C)c1)c1cc(C)c(C(=O)N2CCC[C@H]2C(=O)OC)s1 (single isomer, unassigned) [Ex. 74, L-1-(5-{1-Ethyl-1-[4-(2-hydroxy-3,3-dimethyl-butoxy)-3-methyl-phenyl]-propyl}-3-methyl-thiophene-2-carbonyl)-pyrrolidine-2-carboxylic acid methyl ester]		479 nM
CCC(CC)(c1ccc(OCC(O)C(C)(C)C)c(C)c1)c1cc(C)c(C(=O)NC(C)(C)C(=O)OC)s1 (single isomer, unassigned) [Ex. 76, 2-[(5-{1-Ethyl-1-[4-(2-hydroxy-3,3-dimethyl-butoxy)-3-methyl-phenyl]-propyl}-3-methyl-thiophene-2-carbonyl)-amino]-2-methyl-propionic acid methyl ester]		57.8 nM
CCC(CC)(c1ccc(OCC(C)(O)C(C)(C)C)c(C)c1)c1ccc(C(=O)O)s1 (single isomer, unassigned) [Ex. 105, 3′-[4-(2-hydroxy-2,3,3-trimethylbutoxy)-3-methylphenyl]-3′-[5-carboxy-thiophen-2-yl]pentane]		736 nM
CCCc1cc(C(CC)(CC)c2ccc(C(=O)O)s2)ccc1OCC(C)(O)C(C)(C)C (single isomer, unassigned) [Ex. 112, 3′-[4-(2-hydroxy-2,3,3-trimethylbutoxy)-3-n-propylphenyl]-3′-[5-carboxy-thiophen-2-yl]pentane]		5 nM

Compound	EC50 (Rattus norvegicus)	EC50
CCC(CC)(c1ccc(OCC(O)C(C)(C)C)c(C)c1)c1cc(C)c(C(=O)N(C)CC(=O)O)s1 (single isomer, unassigned) [Ex. 122, N-methyl-2-[(5-{1-ethyl-1-[4-(2-hydroxy-3,3-dimethyl-butoxy)-3-methyl-phenyl]-propyl}-3-methyl-thiophene-2-carbonyl)-methylamino]-acetic acid]	67.5 nM	
CCC(CC)(c1ccc(OCC(O)C(C)(C)C)c(C)c1)c1cc(C)c(CO)s1 (single isomer, unassigned) [Ex. 126]	111 nM	
CCC(CC)(c1ccc(OCC(O)C(C)(C)C)c(C)c1)c1cc(C)c(-c2n[nH]c(=O)o2)s1 (single isomer, unassigned) [Ex. 171]	92.6 nM	
Cc1cc(C2(c3ccc(OCC(=O)C(C)(C)C)c(C)c3)CCCCC2)ccc1OCC(=O)C(C)(C)C [CC, 1-(4-{1-[4-(3,3-Dimethyl-2-oxo-butoxy)-3-methyl-phenyl]-cyclohexyl}-2-methyl-phenoxy)-3,3-dimethyl-butan-2-one, reference compound]	> 1000 nM	
CCC(CC)(c1ccc(OCC(=O)C(C)(C)C)c(C)c1)c1cc(C)c(C(=O)OC)s1 [Ex. 1]	140 nM	
CCC(CC)(c1ccc(OCS(C)(=O)=O)c(C)c1)c1cc(C)c(CCC(=O)C(C)(C)C)s1 [Ex. 13]	313 nM	
CCC(CC)(c1ccc(OCS(C)(=O)=O)c(C)c1)c1cc(C)c(CC[C@@H](O)C(C)(C)C)s1 [Ex. 14]	46.6 nM	
CCC(CC)(c1ccc(C(=O)OC)c(C)c1)c1cc(C)c(CCC(=O)C(C)(C)C)s1 [Ex. 20]	862 nM	
CCC(CC)(c1ccc(C(=O)OC)c(C)c1)c1cc(C)c(CCC(O)C(C)(C)C)s1 (stereo not drawn) [Ex. 21]	140 nM	
CCC(CC)(c1ccc(C(=O)NCC(=O)OC)c(C)c1)c1cc(C)c(CCC(O)C(C)(C)C)s1 (stereo not drawn) [Ex. 24]	4.7 nM	
CCC(CC)(c1ccc(C(=O)NCC(=O)O)c(C)c1)c1cc(C)c(CCC(O)C(C)(C)C)s1 (stereo not drawn) [Ex. 26]	7.95 nM	
CCC(CC)(c1ccc(OCC(=O)OC)c(C)c1)c1cc(C)c(CCC(O)C(C)(C)C)s1 (stereo not drawn) [Ex. 31]	7.8 nM	
CCC(CC)(c1ccc(OCC(=O)O)c(C)c1)c1cc(C)c(CCC(O)C(C)(C)C)s1 (stereo not drawn) [Ex. 32]	9.35 nM	
CCC(CC)(c1ccc(OCC(O)C(C)(C)C)c(C)c1)c1cc(C)c(C(=O)NCCS(C)(=O)=O)s1 (stereo not drawn) [Ex. 38, 5-[1-ethyl-1-[4-(2-hydroxy-3,3-dimethyl-butoxy)-3-methylphenyl]propyl]-3-methylthiophene-2-carboxylic acid (2-methylsulfonyl-ethyl) amide]	380 nM	
CCC(CC)(c1ccc(OCC(=O)C(C)(C)C)c(C)c1)c1cc(C)c(C(=O)NCCS(C)(=O)=O)s1 [Ex. 41, 5-{1-[4-(3,3-Dimethyl-2-oxo-butyoxy)-3-methyl-phenyl]-1-ethyl-propyl}-3-methyl-thiophene-2-carbolic acid (2-methanesulfonyl-ethyl]-amide]	300 nM	
CCC(CC)(c1ccc(OCC(O)C(C)(C)C)c(C)c1)c1cc(C)c(C(=O)N(C)OC)s1 (stereo not drawn) [Ex. 42, 5-{1-Ethyl-1-[4-(2-hydroxy-3,3-dimetliyl-butyoxy)-3-methyl-phenyl]-propyl}-3methyl-thiophene-2-carboxylic acid methoxy-methyl-amide]	33.5 nM	
